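Tested at 5 concentrations; 48 h exposure; 96-well plates; endpoints linearly interpolated, else capped at highest concentration. Abbreviation: GI50, concentration required for 50% inhibition of growth.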 Calls of active or inactive are those of the source. No stated cut-off is given here; in the data, active = GI50 up to about 1.1 µM and inactive = higher.
Key:
Assay in all cases: NCI tumour cell line growth inhibition, 48 h
RXF 393 = test system: RXF 393
DLD-1 = test system: DLD-1
HOP-92 = test system: HOP-92
COLO 205 = test system: COLO 205
Malme-3M = test system: Malme-3M
SN12C = test system: SN12C
SF-539 = test system: SF-539
SF-268 = test system: SF-268
EKVX = test system: EKVX
TK-10 = test system: TK-10
RPMI-8226 = test system: RPMI-8226
SK-OV-3 = test system: SK-OV-3
HL-60 = test system: HL-60
Hs-578T = test system: Hs-578T
OVCAR-3 = test system: OVCAR-3
OVCAR-5 = test system: OVCAR-5
SK-MEL-2 = test system: SK-MEL-2
LOX IMVI = test system: LOX IMVI
UO-31 = test system: UO-31
A498 = test system: A498

SMILES	GI50 (RXF 393)	GI50 (DLD-1)	GI50 (HOP-92)	GI50 (COLO 205)	GI50 (Malme-3M)	GI50 (SN12C)	GI50 (SF-539)	GI50 (SF-268)	GI50 (EKVX)	GI50 (TK-10)	GI50 (RPMI-8226)	GI50 (SK-OV-3)	GI50 (HL-60)	GI50 (Hs-578T)	GI50 (OVCAR-3)	GI50 (OVCAR-5)	GI50 (SK-MEL-2)	GI50 (LOX IMVI)	GI50 (UO-31)	GI50 (A498)
COc1cc2c(cc1O)CCN[C@@]21CS[C@H]2c3c(OC(C)=O)c(C)c4c(c3C(COC1=O)N1C2C2c3c(cc(C)c(OC)c3O)CC([C@@H]1O)N2C)OCO4 (stereo partly specified)	< 0.0001 µM (active)	< 1e-06 µM (active)	< 0.0001 µM (active)	< 0.0001 µM (active)	< 0.0001 µM (active)	< 0.0001 µM (active)	< 0.0001 µM (active)	< 0.0001 µM (active)	< 0.0001 µM (active)	< 0.0001 µM (active)	0.00191 µM (active)	0.0001 µM (active)	< 0.0001 µM (active)	< 0.0001 µM (active)	< 0.0001 µM (active)	0.0001 µM (active)	< 0.0001 µM (active)	< 0.0001 µM (active)	–	–
Cc1cccc2[s+]snc12	47.3 µM (inactive)	26.7 µM (inactive)	23.1 µM (inactive)	23.9 µM (inactive)	30.5 µM (inactive)	> 69.2 µM (inactive)	> 100 µM (inactive)	> 100 µM (inactive)	> 51.3 µM (inactive)	> 100 µM (inactive)	> 42.4 µM (inactive)	> 100 µM (inactive)	18 µM (inactive)	–	30.1 µM (inactive)	> 100 µM (inactive)	> 100 µM (inactive)	49.5 µM (inactive)	> 100 µM (inactive)	> 100 µM (inactive)
O=C(/C=C/c1ccccc1Cl)c1ccc(Cl)c(Cl)c1	13.1 µM (inactive)	15.8 µM (inactive)	26.9 µM (inactive)	> 100 µM (inactive)	22.8 µM (inactive)	> 100 µM (inactive)	18.2 µM (inactive)	18.3 µM (inactive)	14.5 µM (inactive)	18.5 µM (inactive)	37.7 µM (inactive)	24.5 µM (inactive)	25.8 µM (inactive)	–	15.4 µM (inactive)	17.6 µM (inactive)	18 µM (inactive)	14.6 µM (inactive)	17.1 µM (inactive)	15.9 µM (inactive)
CCOC(=O)N1CCN(P(=O)(Nc2ccc3[nH]c(NC(=O)OC)nc3c2)Oc2ccccc2)CC1 (stereo unspecified)	> 100 µM (inactive)	> 100 µM (inactive)	> 100 µM (inactive)	> 100 µM (inactive)	31.6 µM (inactive)	> 100 µM (inactive)	–	> 100 µM (inactive)	–	> 100 µM (inactive)	81.8 µM (inactive)	> 100 µM (inactive)	> 100 µM (inactive)	–	50.7 µM (inactive)	> 100 µM (inactive)	> 100 µM (inactive)	> 100 µM (inactive)	> 100 µM (inactive)	> 100 µM (inactive)
CC1(C)CC(=O)C(C(=O)Nc2cccs2)=C(O)C1	29.9 µM (inactive)	39.5 µM (inactive)	27.6 µM (inactive)	19.6 µM (inactive)	32.1 µM (inactive)	39.4 µM (inactive)	36.2 µM (inactive)	> 100 µM (inactive)	42 µM (inactive)	64.6 µM (inactive)	31 µM (inactive)	62.4 µM (inactive)	24.1 µM (inactive)	–	29.4 µM (inactive)	44 µM (inactive)	35.9 µM (inactive)	32.3 µM (inactive)	28.8 µM (inactive)	28.8 µM (inactive)
CN(C)C(=S)/N=c1\ssc(=S)n1C1CCCCC1	33.3 µM (inactive)	21.5 µM (inactive)	35.2 µM (inactive)	–	23.4 µM (inactive)	29.4 µM (inactive)	20.7 µM (inactive)	32.4 µM (inactive)	45.7 µM (inactive)	> 100 µM (inactive)	–	> 100 µM (inactive)	11.2 µM (inactive)	–	–	74.1 µM (inactive)	52.8 µM (inactive)	–	61.1 µM (inactive)	37.2 µM (inactive)
Cc1[nH]c2ccccc2c1C(=O)CC1(O)C(=O)Nc2ccccc21 (stereo unspecified)	> 100 µM (inactive)	> 100 µM (inactive)	> 100 µM (inactive)	> 100 µM (inactive)	–	> 100 µM (inactive)	> 100 µM (inactive)	> 100 µM (inactive)	73.1 µM (inactive)	> 100 µM (inactive)	> 100 µM (inactive)	> 100 µM (inactive)	> 100 µM (inactive)	–	–	> 100 µM (inactive)	87.7 µM (inactive)	> 100 µM (inactive)	> 100 µM (inactive)	> 100 µM (inactive)
Nc1ccc(C(=O)CC2(O)C(=O)Nc3ccccc32)cc1 (stereo unspecified)	> 100 µM (inactive)	> 100 µM (inactive)	> 100 µM (inactive)	> 100 µM (inactive)	> 100 µM (inactive)	> 100 µM (inactive)	> 100 µM (inactive)	> 100 µM (inactive)	> 100 µM (inactive)	> 100 µM (inactive)	> 100 µM (inactive)	> 100 µM (inactive)	38.9 µM (inactive)	–	> 100 µM (inactive)	> 100 µM (inactive)	> 100 µM (inactive)	> 100 µM (inactive)	> 100 µM (inactive)	> 100 µM (inactive)
COc1ccc(CN2C(=O)[C@@H]3Cc4c(OC)c(C)c(OC)c(OC)c4[C@H](/C2=C\c2cc(OC)c(OC)c(C)c2OC)N3C(=O)OC(C)C)cc1	80.4 µM (inactive)	69.3 µM (inactive)	8.04 µM (inactive)	12.4 µM (inactive)	41.2 µM (inactive)	> 100 µM (inactive)	> 100 µM (inactive)	> 100 µM (inactive)	12.2 µM (inactive)	78 µM (inactive)	8.34 µM (inactive)	32.5 µM (inactive)	5.53 µM (inactive)	–	99.1 µM (inactive)	> 100 µM (inactive)	91.8 µM (inactive)	43 µM (inactive)	36.5 µM (inactive)	27.3 µM (inactive)
COc1ccc2c(c1)CCC1C3(CCCC21C)OCCO3 (stereo unspecified)	13.7 µM (inactive)	15.7 µM (inactive)	15.1 µM (inactive)	17.9 µM (inactive)	27.9 µM (inactive)	16.3 µM (inactive)	12.9 µM (inactive)	6.9 µM (inactive)	16.8 µM (inactive)	36.8 µM (inactive)	18.8 µM (inactive)	24 µM (inactive)	15.9 µM (inactive)	–	16.1 µM (inactive)	27 µM (inactive)	4.7 µM (inactive)	15.9 µM (inactive)	16.9 µM (inactive)	29.6 µM (inactive)
CCCCCCCCCCCCCCNCC(OCC)OCC	10.2 µM (inactive)	13.7 µM (inactive)	11.5 µM (inactive)	14.4 µM (inactive)	17.1 µM (inactive)	13.7 µM (inactive)	16.1 µM (inactive)	17.3 µM (inactive)	17.7 µM (inactive)	17.4 µM (inactive)	–	18.6 µM (inactive)	2.85 µM (inactive)	–	18.3 µM (inactive)	15.3 µM (inactive)	14.5 µM (inactive)	16.3 µM (inactive)	10.7 µM (inactive)	14.4 µM (inactive)
COc1cc([C@H]2c3[nH]c4ccccc4c3C[C@H]3COC(=O)N32)cc(OC)c1O	0.0405 µM (active)	0.132 µM (active)	2.27 µM (inactive)	0.166 µM (active)	3.95 µM (inactive)	2.43 µM (inactive)	0.0396 µM (active)	0.0221 µM (active)	0.8 µM (active)	0.807 µM (active)	0.0404 µM (active)	–	0.0176 µM (active)	0.0335 µM (active)	< 0.01 µM (active)	13.3 µM (inactive)	–	< 0.01 µM (active)	0.246 µM (active)	0.0509 µM (active)
CC1CC2(CCC1OCc1ccccc1)OCCO2 (stereo unspecified)	> 100 µM (inactive)	> 100 µM (inactive)	> 100 µM (inactive)	> 100 µM (inactive)	> 100 µM (inactive)	> 100 µM (inactive)	> 100 µM (inactive)	–	> 100 µM (inactive)	> 100 µM (inactive)	> 100 µM (inactive)	> 100 µM (inactive)	> 100 µM (inactive)	–	> 100 µM (inactive)	–	> 100 µM (inactive)	> 100 µM (inactive)	> 100 µM (inactive)	> 100 µM (inactive)
N#C/C(=C1\N=NC(N)=C(c2ccc(Cl)cc2)C1=O)c1ccc(Cl)cc1	> 100 µM (inactive)	> 100 µM (inactive)	> 100 µM (inactive)	> 100 µM (inactive)	> 100 µM (inactive)	> 100 µM (inactive)	> 100 µM (inactive)	> 100 µM (inactive)	> 100 µM (inactive)	> 100 µM (inactive)	> 100 µM (inactive)	> 100 µM (inactive)	> 100 µM (inactive)	–	> 100 µM (inactive)	> 100 µM (inactive)	–	> 100 µM (inactive)	> 100 µM (inactive)	> 100 µM (inactive)
Nc1ncnc2c1ncn2C1CC(O)C(CO)O1 (stereo unspecified)	> 100 µM (inactive)	> 100 µM (inactive)	> 100 µM (inactive)	> 100 µM (inactive)	> 100 µM (inactive)	> 100 µM (inactive)	> 100 µM (inactive)	> 100 µM (inactive)	> 100 µM (inactive)	> 100 µM (inactive)	> 100 µM (inactive)	> 100 µM (inactive)	> 100 µM (inactive)	–	> 100 µM (inactive)	> 100 µM (inactive)	> 100 µM (inactive)	> 100 µM (inactive)	> 100 µM (inactive)	> 100 µM (inactive)
